Measured values: patent US7906488B2, “Sphingolipids in treatment and prevention of steatosis and of steatosis or of hepatotoxicity and its sequelae” (Nederlandse Organisatie Voor …, priority 2004, dated 2011)

How the values were obtained:
[1] = test system: galactosamine-injured primary rat hepatocytes; details: cited from earlier work
APOE*3Leiden mice = experiment: Effect of dietary sphingolipids on plasma C and TG levels (0.1, 0.2, 0.4% in diet); format: in vivo; details: 0.4% sphingolipid in diet, compared with 0.2%
Excerpt: Sphingolipids: The three sphingolipids that represent the most abundant natural complex sphingolipid classes and the three of the simplest natural sphingolipids, the sphingoid bases that can be formed by enzymatic breakdown of complex sphingolipids in the intestine were used. Sphingomyelin (mainly N-palmitoyl-sphingosine-1-phosphocholine) from egg was obtained from Larodan Fine Chemicals (Stockholm, Sweden). Yeast-derived (semi)synthetic ceramide III (N-stearoyl-phytosphingosine), cerebroside (N-stearoyl-phytosphingosine-1-glucose) and phytosphingosine (PS) were from Cosmoferm BV (Delft, the Netherlands). Sphinganine and sphingosine were from Avanti Polar Lipids (Albaster, Ala.). Animals and diets: Heterozygous female APOE*3Leiden transgenic mice (Van Vlijmen et al. 1994. J. Clin. Invest 93:1403-1410.) (6 months old) were fed a Western-type diet (Hope Farms, Woerden, the Netherlands) containing 15% cocoa butter, 0.25% cholesterol, 1% corn oil, 40.5% sucrose, 20% acid casein, 10% corn starch and 5.95% cellulose (all w/w) for 5 weeks. The mice were allowed free access to food and water. Body weight and food intake were monitored weekly. In the first experiment (FIG. 2), the mice were randomized after these 5 weeks into 7 groups (n=6), based on plasma cholesterol, triglycerides, and body weight. Subsequently, the mice were fed for three weeks the same diet without or with 0.1% (w/w) phytosphingosine (PS), sphingosine, sphinganine, cerebroside, ceramide III, or sphingomyelin. […]
Plasma parameters: Tail blood samples were collected in EDTA-coated cups, or in paraoxon-coated capillaries to prevent lipolysis as described in Zambon et al. 1993 (Zambon et al. 1993. J. Lipid Res. 34:1021-1028). Plasma lipid parameters were determined using commercial kits for total cholesterol (C) Chol R1 from Roche Diagnostics, Mannheim, Germany), non-esterified free fatty acids (FFA) (NEFA-C; Wako chemicals, Neuss, Germany), Total triglycerides (TG) (Triglyceride GPO-Trinder; Sigma, St. Louis, Mo.), β-hydroxybutyrate (β-HB; Sigma) and ALAT (Reflotron GPT; Roche). Serum amyloid A (SAA) was measured by ELISA (Biosource, Nivelles, Belgium) and fibrinogen by sandwich ELISA, as described in Koopman et al., 2005 (Koopman et al. 2005. Fibrinol Proteol 11:19). […] Hepatic VLDL-TG production: The rate of hepatic VLDL-TG production, de novo apoB secretion, and VLDL composition were determined in overnight-fasted mice. […] After 30 min, the animals received a Triton WR1339 injection (Tyloxapol, Sigma; 500 mg/kg body weight in 100 μl saline) to prevent systemic lipolysis of newly-secreted hepatic VLDL-TG (Aalto-Setala et al. 1992. J. Clin. Invest 90:1889-1900.27) Blood samples were drawn at 0, 15, 30, 60, and 90 min after Triton WR1339 injection and plasma TG concentrations were determined. […]

rats = details: administration to the food of rats; cited from earlier work
C57bI mice = details: intraperitoneal injection; cited from earlier work

For `CCCCCCCCC/C=C\CC/C=C/[C@@H](O)[C@H](CO[C@@H]1O[C@H](CO)[C@@H](O)[C@H](O)[C@H]1O)NC(=O)CCCCCCCCCCCCCCC` [LCC, 1-O-(β-D-glucopyranosyl)-(2S,3R,4E,8Z)-2-N-palmityloctadecasphinga-4,8-diene], the “Release into the culture medium of GPT and SDH” value [1] is given as “reduce the release”.

In the case of `CCCCCCCCCCCCCCCCCC(=O)N[C@@H](CO)[C@H](O)[C@H](O)CCCCCCCCCCCCCC` [ceramide III, N-stearoyl-phytosphingosine], the “Plasma C” value (APOE*3Leiden mice) is reported as “decreased even more”.

For `CCCCCCCCCCCCC/C=C/[C@@H](O)[C@H](COP(=O)([O-])OCC[N+](C)(C)C)NC(=O)CCCCCCCCCCCCCCC` [sphingomyelin, N-palmitoyl-sphingosine-1-phosphocholine], the “Plasma C” value (APOE*3Leiden mice) is given as “decreased even more” and the “Chances of occurrence of malignant, chemically induced colon cancer” value (rats) is given as “significantly decrease”.

In the case of `CCCCCCCCCCCCC/C=C/[C@@H](O)[C@@H](N)CO` [sphingosine], the “Plasma C” value (APOE*3Leiden mice) is reported as “decreased even more”.

For glucocerebroside, the Liver fat content (C57bI mice) is listed as “reduced”.
